Measurements reported in PubChem BioAssay AID2359 (Sanford-Burnham Center for Chemical Genomics, 2010).

Molecular target: Kappa-type opioid receptor (Homo sapiens) (UniProt P41145)
Assay: kappa opioid receptor activation potency – imaging, image-based, SAR follow-up (AID 2359)
Settings: KOR agonist image-based assay (receptor translocation imaging)

Kappa-type opioid receptor (Homo sapiens), sequence (P41145 whole entry, looked up): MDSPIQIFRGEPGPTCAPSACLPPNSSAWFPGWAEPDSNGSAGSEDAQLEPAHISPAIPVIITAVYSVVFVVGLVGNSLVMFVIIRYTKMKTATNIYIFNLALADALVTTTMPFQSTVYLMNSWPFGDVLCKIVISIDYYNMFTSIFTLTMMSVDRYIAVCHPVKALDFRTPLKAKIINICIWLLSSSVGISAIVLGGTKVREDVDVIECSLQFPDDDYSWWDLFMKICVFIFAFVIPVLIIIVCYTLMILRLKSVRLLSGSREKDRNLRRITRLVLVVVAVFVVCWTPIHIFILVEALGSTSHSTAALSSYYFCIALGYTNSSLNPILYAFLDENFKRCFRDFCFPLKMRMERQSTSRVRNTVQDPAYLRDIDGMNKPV

| EC50 [µM] | Structure (SMILES) |
| --- | --- |
| 4.93 | CCCCN(Cc1cc2cc(C)ccc2[nH]c1=O)C(=O)c1ccccn1 |
| 10.1 | COc1ccc(CN(Cc2ccccn2)C(=O)CN2C(=O)COc3ccccc32)cc1 |
